From ChEMBL document CHEMBL1137656, “Effects of serum on in vitro susceptibility testing of echinocandins” (Antimicrob Agents Chemother, 2007)
Numbered stars: 1 amine (or outer) side, 2 acyl side, 3 side chain; on linkers, the order of the positions; unused ones are H or OH. Bridge positions count the residues as written; N and C are the ends. Square brackets hold non-standard residues; d marks the D form. Peptide text beside a SMILES is read from it. * marks the point of attachment. hTyr(3S-OH,4S-OH,3'-OSO3H) = N[C@H](C(=O)O)[C@H](O)[C@@H](O)c1ccc(O)c(OS(=O)(=O)O)c1; Orn(4R-OH,5R-OH) = O=C([C@H](C[C@@H](O)[C@@H](O)N[*:3])N[*:1])[*:2]; Pro(3S-OH,4S-Me) = C[C@H]1CN[C@H](C(=O)O)[C@H]1O; X1 = CCCCCOc1ccc(-c2cc(-c3ccc(C(=O)*)cc3)no2)cc1; Gln(3R-OH) = NC(=O)C[C@@H](O)[C@H](N)C(=O)O; Hyp = O=C(O)[C@@H]1C[C@@H](O)CN1

Key:
Assay type in all cases: functional
Aspergillus fumigatus [1] = test: Antifungal activity against Aspergillus fumigatus isolate 0002-021 after 24 hrs by CLSI M38-A broth microdilution method in presence of 50% human serum; settings: isolate 0002-021, 24 h
Aspergillus niger [2] = test: Antifungal activity against Aspergillus niger isolate 0001-073 after 24 hrs by CLSI M38-A broth microdilution method in presence of RPMI 1640 medium; settings: isolate 0001-073, 24 h
Candida parapsilosis [3] = test: Antifungal activity against Candida parapsilosis isolate 0026-003 after 24 hrs by CLSI M27-A2 broth microdilution method in presence of RPMI 1640 medium; settings: Lodderomyces parapsilosis, isolate 0026-003, 24 h
Candida tropicalis = test: Antifungal activity against Candida tropicalis isolate 0050-028 after 24 hrs by CLSI M27-A2 broth microdilution method in presence of 50% human serum; settings: isolate 0050-028, 24 h
Aspergillus flavus [4] = test: Ratio of MIC50 for Aspergillus flavus isolate 0001-033 in presence of 50% human serum to MIC50 for Aspergillus flavus isolate 0001-033 in presence of RPMI 1640 medium
Clavispora lusitaniae [5] = test: Antifungal activity against Candida lusitaniae isolate 0015-049 after 24 hrs by CLSI M27-A2 broth microdilution method in presence of 50% human serum
Candida albicans [6] = test: Antifungal activity against Candida albicans isolate 0021-076 after 24 hrs by CLSI M27-A2 broth microdilution method in presence of RPMI 1640 medium; settings: isolate 0021-076, 24 h
Candida albicans [7] = test: Ratio of MIC50 for Candida albicans isolate 0012-025 in presence of 50% human serum to MIC50 for Candida albicans isolate 0012-025 in presence of RPMI 1640 medium
Aspergillus terreus [8] = test: Antifungal activity against Aspergillus terreus isolate 0031-087 after 48 hrs by CLSI M38-A broth microdilution method in presence of 50% human serum; settings: isolate 0031-087, 48 h
Aspergillus terreus [9] = test: Ratio of MIC50 for Aspergillus terreus isolate 0031-087 in presence of 50% human serum to MIC50 for Aspergillus terreus isolate 0031-087 in presence of RPMI 1640 medium
Aspergillus flavus [10] = test: Antifungal activity against Aspergillus flavus isolate 0001-033 after 24 hrs by CLSI M38-A broth microdilution method in presence of 50% human serum; settings: isolate 0001-033, 24 h
Aspergillus fumigatus [11] = test: Ratio of MIC50 for Aspergillus fumigatus isolate 0002-0016 in presence of 50% human serum to MIC50 for Aspergillus fumigatus isolate 0002-0016 in presence of RPMI 1640 medium
Clavispora lusitaniae [12] = test: Antifungal activity against Candida lusitaniae isolate 0013-002 after 24 hrs by CLSI M27-A2 broth microdilution method in presence of RPMI 1640 medium; settings: isolate 0013-002, 24 h
Aspergillus fumigatus [13] = test: Antifungal activity against Aspergillus fumigatus isolate 0002-0016 after 24 hrs by CLSI M38-A broth microdilution method in presence of 50% human serum; settings: isolate 0002-0016, 24 h
Nakaseomyces glabratus [14] = test: Antifungal activity against Candida glabrata isolate 0049-038 after 24 hrs by CLSI M27-A2 broth microdilution method in presence of RPMI 1640 medium; settings: isolate 0049-038, 24 h
Nakaseomyces glabratus [15] = test: Antifungal activity against Candida glabrata isolate 0049-038 after 24 hrs by CLSI M27-A2 broth microdilution method in presence of 50% human serum; settings: isolate 0049-038, 24 h
Pichia kudriavzevii [16] = test: Ratio of MIC50 for Candida krusei isolate 0001-058 in presence of 50% human serum to MIC50 for Candida krusei isolate 0001-058 in presence of RPMI 1640 medium
Candida albicans [17] = test: Antifungal activity against Candida albicans isolate 0021-076 after 24 hrs by CLSI M27-A2 broth microdilution method in presence of 50% human serum; settings: isolate 0021-076, 24 h
Candida parapsilosis [18] = test: Antifungal activity against Candida parapsilosis ATCC 22019 after 24 hrs by CLSI M27-A2 broth microdilution method in presence of RPMI 1640 medium; settings: Lodderomyces parapsilosis, ATCC 22019, 24 h
Pichia kudriavzevii [19] = test: Antifungal activity against Candida krusei isolate 0001-058 after 24 hrs by CLSI M27-A2 broth microdilution method in presence of RPMI 1640 medium; settings: isolate 0001-058, 24 h
Pichia kudriavzevii [20] = test: Antifungal activity against Candida krusei isolate 0001-058 after 24 hrs by CLSI M27-A2 broth microdilution method in presence of 50% human serum; settings: isolate 0001-058, 24 h
Candida albicans [21] = test: Antifungal activity against Candida albicans isolate 0012-025 after 24 hrs by CLSI M27-A2 broth microdilution method in presence of RPMI 1640 medium; settings: isolate 0012-025, 24 h
Clavispora lusitaniae [22] = test: Ratio of MIC50 for Candida lusitaniae isolate 0015-049 in presence of 50% human serum to MIC50 for Candida lusitaniae isolate 0015-049 in presence of RPMI 1640 medium
Candida albicans [23] = test: Ratio of MIC50 for Candida albicans isolate 0021-076 in presence of 50% human serum to MIC50 for Candida albicans isolate 0021-076 in presence of RPMI 1640 medium
Aspergillus fumigatus [24] = test: Ratio of MIC50 for Aspergillus fumigatus isolate 0002-021 in presence of 50% human serum to MIC50 for Aspergillus fumigatus isolate 0002-021 in presence of RPMI 1640 medium
Aspergillus niger [25] = test: Antifungal activity against Aspergillus niger isolate 0001-073 after 24 hrs by CLSI M38-A broth microdilution method in presence of 50% human serum; settings: isolate 0001-073, 24 h
Candida parapsilosis [26] = test: Antifungal activity against Candida parapsilosis isolate 0036-030 after 24 hrs by CLSI M27-A2 broth microdilution method in presence of RPMI 1640 medium; settings: Lodderomyces parapsilosis, isolate 0036-030, 24 h
Nakaseomyces glabratus [27] = test: Antifungal activity against Candida glabrata isolate 0022-012 after 24 hrs by CLSI M27-A2 broth microdilution method in presence of 50% human serum; settings: isolate 0022-012, 24 h
Aspergillus terreus [28] = test: Antifungal activity against Aspergillus terreus isolate 0031-087 after 48 hrs by CLSI M38-A broth microdilution method in presence of RPMI 1640 medium; settings: isolate 0031-087, 48 h
Pichia kudriavzevii [29] = test: Antifungal activity against Candida krusei ATCC 6258 after 24 hrs by CLSI M27-A2 broth microdilution method in presence of RPMI 1640 medium; settings: ATCC 6258, 24 h
Nakaseomyces glabratus [30] = test: Ratio of MIC50 for Candida glabrata isolate 0049-038 in presence of 50% human serum to MIC50 for Candida glabrata isolate 0049-038 in presence of RPMI 1640 medium
Pichia kudriavzevii [31] = test: Antifungal activity against Candida krusei isolate 0013-054 after 24 hrs by CLSI M27-A2 broth microdilution method in presence of 50% human serum; settings: isolate 0013-054, 24 h
Aspergillus fumigatus [32] = test: Antifungal activity against Aspergillus fumigatus isolate 0002-020 after 24 hrs by CLSI M38-A broth microdilution method in presence of 50% human serum; settings: isolate 0002-020, 24 h

CCCCCOc1ccc(-c2cc(-c3ccc(C(=O)N[C@H]4C[C@@H](O)[C@@H](O)NC(=O)[C@@H]5[C@@H](O)[C@@H](C)CN5C(=O)[C@H]([C@H](O)CC(N)=O)NC(=O)[C@H]([C@H](O)[C@@H](O)c5ccc(O)c(OS(=O)(=O)O)c5)NC(=O)[C@@H]5C[C@@H](O)CN5C(=O)[C@H]([C@@H](C)O)NC4=O)cc3)no2)cc1 [MICAFUNGIN] (X1-[Orn(4R-OH,5R-OH)]T[Hyp][hTyr(3S-OH,4S-OH,3'-OSO3H)][Gln(3R-OH)][Pro(3S-OH,4S-Me)]; lactam 1-C)
MIC50 (Aspergillus fumigatus [1]): 1 µg/mL | MIC50 (Aspergillus niger [2]): 0.002 µg/mL | MIC50 (Candida parapsilosis [3]): 0.5 µg/mL | MIC50 (Candida tropicalis): 32 µg/mL | Ratio (Aspergillus flavus [4]): 1024 | MIC50 (Clavispora lusitaniae [5]): 4 µg/mL | MIC50 (Candida albicans [6]): 0.5 µg/mL | Ratio (Candida albicans [7]): 64 | MIC50 (Aspergillus terreus [8]): 0.25 µg/mL | Ratio (Aspergillus terreus [9]): 128 | MIC50 (Aspergillus flavus [10]): 128 µg/mL | Ratio (Aspergillus fumigatus [11]): 64 | MIC50 (Clavispora lusitaniae [12]): 0.008 µg/mL | MIC50 (Aspergillus fumigatus [13]): 2 µg/mL | MIC50 (Nakaseomyces glabratus [14]): 0.004 µg/mL | MIC50 (Nakaseomyces glabratus [15]): 1 µg/mL | Ratio (Pichia kudriavzevii [16]): 32 | MIC50 (Candida albicans [17]): 64 µg/mL | MIC50 (Candida parapsilosis [18]): 0.5 µg/mL | MIC50 (Pichia kudriavzevii [19]): 0.0625 µg/mL | MIC50 (Pichia kudriavzevii [20]): 2 µg/mL | MIC50 (Candida albicans [21]): 0.0156 µg/mL | Ratio (Clavispora lusitaniae [22]): 256 | Ratio (Candida albicans [23]): 128 | Ratio (Aspergillus fumigatus [24]): 1024 | MIC50 (Aspergillus niger [25]): 0.25 µg/mL | MIC50 (Candida parapsilosis [26]): 0.5 µg/mL | MIC50 (Nakaseomyces glabratus [27]): 1 µg/mL | MIC50 (Aspergillus terreus [28]): 0.002 µg/mL | MIC50 (Pichia kudriavzevii [29]): 0.0625 µg/mL | Ratio (Nakaseomyces glabratus [30]): 256 | MIC50 (Pichia kudriavzevii [31]): 8 µg/mL | MIC50 (Aspergillus fumigatus [32]): 0.5 µg/mL
